Measured values as given in patent US4834982A, “Potassium-neutral salureticum with anti-hypertensive effect” (priority 1987, dated 1989).
Several values for one entry are separate records, joined by “and”; a condition that tells them apart may be missing. Identical values can stand only once. Like-named read-outs stand apart in the source and are kept apart here.

Columns and labels:
[1] = solubilization and binding thermodynamics of furosemide in triamterene micelles; type: physicochemical
[2] = in vivo; cited from earlier work
[3] = critical micelle concentration / equilibrium surface tension measurements; type: physicochemical; details: substances separately, 37° C.
Description: Since the interfacial molecular areas can be determined from the slopes of equilibrium surface tensions measurements from FIG. A,B, just below the break points, they are easy to compare.

[4] = 50 mg/day or 100 mg/day triamterene with 40 mg/day furosemide; cited from earlier work
[5] = 40 mg furosemide, normal volunteers; cited from earlier work
[6] = solute permeability of ions on artificial membranes; details: 0.30 mM
[7] = contact angle measurements; type: physicochemical
[8] = solubility of furosemide and triamterene; type: physicochemical
[9] = cited from earlier work

Nc1nc(N)c2nc(-c3ccccc3)c(N)nc2n1 [triamterene]
K(T) of triamterene micelle, times smaller than for a furosemide micelle [1]: roughly 15 times | limiting value of n (aggregation number of triamterene micelles) ([1]; pH 2.5): 15 | limiting value of n (aggregation number of triamterene micelles) ([1]; pH 7.9): 25 | half life time t1/2 [2]: 3.0 h | critical micelle concentration (CMC) [3]: 15 µM | natriuretic effect [4]: agument the natriuretic effect | oral dose required to block the kaliuretic effect of furosemide [5]: 50 mg and 100 mg | triamterene molecules required to solubilize furosemide (controlled release form of furosemide at basic pH): 320-350 molecules | triamterene molecules required to solubilize furosemide and furosemide in controlled release form (molar basis): 298 molecules and 320 molecules and 324 molecules | Solute permeability K (Cl) ([6]; compartment A): 170,3 ± 10,0 mol·s^-1·N^-1 | Solute permeability Na (Cl) ([6]; compartment A): 111,2 ± 12,0 mol·s^-1·N^-1 | Solute permeability K (Cl) ([6]; compartment B): 90,5 ± 5,0 mol·s^-1·N^-1 | Solute permeability Na (Cl) ([6]; compartment B): 207,4 ± 8,0 mol·s^-1·N^-1 | contact angle [7]: 100 deg. | solubility ([8]; 37° C., molar equivalent): 0.0001184 mol/L | solubility ([8]; 37° C., molar equivalent in parentheses): 0,11 mMol | solubility ([8]; molar, read-out: solubility): 0.000118 mol/L | solubility ([8]; pH 5.5, read-out: solubility): 30 µg/mL | solubility ([8]; pH 9-11.0): 5 µg/mL

Nc1nc(N)c2nc(-c3ccc(OS(=O)(=O)O)cc3)c(N)nc2n1 [hydroxy-triamterene-sulfuric acid ester]
plasma concentration relative to triamterene ([9]; intravenous, simultaneous with furosemide): about ten | potassium loss caused by furosemide ([9]; simultaneous intravenous administration with furosemide): can be impeded

NS(=O)(=O)c1cc(C(=O)O)cc(N2CCCC2)c1Oc1ccccc1 [peritanide]
half life time t1/2 [2]: about 1 h

CCCCNc1cc(C(=O)O)cc(S(N)(=O)=O)c1Oc1ccccc1 [bumetanide]
half life time t1/2 [2]: about 1 h

NS(=O)(=O)c1cc(C(=O)O)c(NCc2ccco2)cc1Cl [furosemide]
critical micelle concentration (CMC) [3]: 83 µM | contact angle [7]: 59 deg. | contact angle ([7]; complexing to stearate, phthalate, etc.): 108 deg
